Measured values taken from US9242937B2, “Pharmaceutically active disubstituted pyridine derivatives” (Bayer Intellectual Property GmbH, priority 2011, dated 2016).

Columns and labels:
[1] = target: T1, CDK9/Cyclin T1 (Homo sapiens, UniProt P50750); assay: LanthaScreen Eu Kinase Binding Assay, CDK9/Cyclin T1; conditions: tracer 236, read-out: CDK9/Cyclin T1 (activity range), Kd
T1 construct: purchased Invitrogen
Description: (§1) This protocol describes how the LanthaScreen Eu Kinase Binding Assay was performed to determine dissociation constants (Kd) of compounds of general formula (I) and CDK/Cyclin complexes. The principle behind this assay is based upon the binding and displacement of an Alexa Fluor 647-labeled tracer, which binds to the active site of kinases. Binding of the tracer to the kinase is detected using a Eu-labeled antibody. Simultaneous binding of both the tracer and antibody to the kinase gives rise to a FRET-signal. Binding of an inhibitor to the kinase competes for binding with the tracer, resulting in a loss of FRET.
(§2) The compounds of general formula (I) summarized in Table 1 were diluted from a 10 mM DMSO stock solution 1:10 in a total volume of 15 μL DMSO. This compound predilution was then serial diluted 1:3 over 8 steps in DMSO and briefly spun down. Each compound solution was now diluted 1:33.33 in kinase buffer (HEPES: 20 mM, pH: 8.0; MgCl2: 10 mM; DTT: 1 mM; Brij-35: 0.01%), mixed thoroughly and spun down. For every sample, 5 μL of the diluted compound were mixed with 5 μL tracer working solution (e.g. 60 nM tracer 236 in kinase buffer for CDK2/Cyclin A) and 5 μL CDK/Cyclin/Anti-GST-AB-working solution (e.g. 15 nM CDK2/Cyclin A, 1:250 dilution of Anti-GST-AB in kinase buffer) in a well of a small volume 384 well plate (Corning Incorporated, Corning, N.Y., USA; order no. 3673). The tracer concentration was adjusted to its dissociation constant (Kd) for the CDK/Cyclin, which was 30 nM for CDK2/Cyclin A, CDK7/Cyclin H and CDK9/Cyclin T1, 20 nM for CDK8/Cyclin C, and 35 nM for CDK9/Cyclin K. For negative controls, in each well 5 μL of DMSO working solution (3% DMSO diluted in kinase buffer) was mixed with 5 μL Anti-GST-AB working solution (e.g. 1:250 dilution of Anti-GST-AB in kinase buffer for CDK2/Cyclin A) and 5 μL Tracer working solution (e.g. 60 nM Tracer 236 in kinase buffer for CDK2/Cyclin A). For positive controls, in each well 5 μL of DMSO working solution (3% DMSO diluted in kinase buffer) was mixed with 5 μL CDK/Cyclin/Anti-GST-AB-working solution: (e.g. 15 nM CDK2/Cyclin A, 1:250 dilution of Anti-GST-AB in kinase buffer) and 5 μL Tracer working solution (e.g. 60 nM Tracer 236 in kinase buffer for CDK2/Cyclin A). Positive and negative controls were calculated from at least 8 different sample wells. The 384 well plates were mixed in a Teleshaker plate mixer (Beckman Coulter, Brea, Calif., USA) at 2000 rpm for 40 sec, and incubated for 1 h at room temperature before reading. The FRET signal was measured at 340 nm excitation, 665 nm and 615 nm emission (for the kinase tracer and LanthaScreen Eu-AB, respectively) with an Envision spectrophotometer (Perkin Elmer, Waltham, Mass., USA) with 50 μs delay and 300 μs integration time. Kd values were determined from the sigmoidal dose response curves with the software Quattro Workflow (Quattro GmbH, Munich, Germany).

[2] = target: T2, CDK9 (Homo sapiens, UniProt P50750); assay: Lance Ultra KinaSelect Assay, CDK9; format: biochemical; conditions: ULight MBP substrate; cyclin partner not stated in Table 5; read-out: CDK9 LANCE assay (activity range), IC50
T2 construct: purchased Invitrogen
T2 sequence (P50750 whole entry): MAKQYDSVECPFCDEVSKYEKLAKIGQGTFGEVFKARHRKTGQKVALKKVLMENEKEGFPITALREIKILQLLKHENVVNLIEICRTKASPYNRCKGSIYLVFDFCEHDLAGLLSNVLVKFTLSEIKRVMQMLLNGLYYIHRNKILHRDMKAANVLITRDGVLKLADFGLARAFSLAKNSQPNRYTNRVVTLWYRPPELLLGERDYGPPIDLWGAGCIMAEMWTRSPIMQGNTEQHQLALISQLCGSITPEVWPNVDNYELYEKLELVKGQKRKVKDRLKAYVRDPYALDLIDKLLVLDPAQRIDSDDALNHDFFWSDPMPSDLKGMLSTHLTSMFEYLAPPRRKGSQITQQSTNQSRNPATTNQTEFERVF
Description: (§3) This protocol describes how the Lance Ultra KinaSelect Assay was performed to determine half maximal inhibitory concentration (IC50) of compounds of general formula (I) and CDK/Cyclin complexes. The principle behind this enzymatic assay is based upon the phosphorylation of the ULight-Peptide Substrat. It is detected by using a specific EU-labeled anti-phospho peptide antibody. The binding of the Eu-labeled anti-phospho peptide antibody to the phosphorylated ULight labeled peptide gives rise to a FRET-signal. Binding of an inhibitor to the kinase prevents phosphorylation of the ULight-MBP Substrat, resulting in a loss of FRET.
(§4) The compounds of general formula (I) summarized in Table 5 were diluted from a 10 mM DMSO stock solution 1:10 in a total volume of 15 μL DMSO. This compound predilution was then serial diluted 1:3 over 8 steps in DMSO and briefly spun down. Each compound solution was now diluted 1:20 in Enzymatic Buffer (HEPES: 50 mM, pH: 7.5; MgCl2: 10 mM; EGTA: 1 mM; DTT: 2 mM; Tween-20: 0.01%), mixed thoroughly and spun down. For every sample, 2 μL of the diluted compound were mixed with 6 μL CDK/Cyclin/Substrat solution and 2 μL ATP solution in a well of a small volume 384 well plate (Corning Incorporated, Corning, N.Y., USA; order no. 3673). The CDK/Cyclin was diluted to the appropriate concentration (see Table 3) and the ATP concentration was adjusted to its […] for the CDK/Cyclin, which was 3 μM for CDK2/Cyclin A, 20 μM for CDK1/Cyclin B1, 25 μM for CDK7/Cyclin H and CDK9/Cyclin T1, 55 μM for CDK6/Cyclin D3, 90 μM for CDK4/Cyclin D1 and 125 μM for CDK9/Cyclin K. For negative controls, in each well 2 μL of DMSO solution (1% final DMSO assay concentration) was mixed with 6 μL substrate solution (50 nM ULight MBP final assay concentration) and 2 μL ATP solution (appropriate final concentration see Table 3). For positive controls, in each well 2 μL of DMSO solution (1% final DMSO assay concentration) was mixed with 6 μL CDK/Cyclin/Substrat (appropriate final concentration see Table 3) and 2 μL Tracer ATP solution (appropriate final concentration see Table 3). Positive and negative controls were calculated from at least 8 different sample wells. The 384 well plates were mixed in a Teleshaker plate mixer (Beckman Coulter, Brea, Calif., USA) at 2000 rpm for 40 sec, and incubated for 1 h at room temperature. Before reading, 10 μL the detection buffer (Lance Detection Buffer 1×; EDTA: […]; Eu-Anti-P-MBP: see Table 3) was added. The FRET signal was measured at 340 nm excitation, 665 nm and 615 nm emission (for the kinase tracer and LanthaScreen Eu-AB, respectively) with an Envision spectrophotometer (Perkin Elmer, Waltham, Mass., USA) with 50 μs delay and 300 μs integration time. IC50 values were determined from the sigmoidal dose response curves with the software Quattro Workflow (Quattro GmbH, Munich, Germany).

[3] = target: T3, CDK7/CyclinH/MAT1 (Homo sapiens, UniProt P50613); assay: LanthaScreen Eu Kinase Binding Assay, CDK7; conditions: tracer 236, read-out: CDK7 (activity range), Kd
T3 construct: purchased Carna Biosciences
T3 sequence (P50613 whole entry): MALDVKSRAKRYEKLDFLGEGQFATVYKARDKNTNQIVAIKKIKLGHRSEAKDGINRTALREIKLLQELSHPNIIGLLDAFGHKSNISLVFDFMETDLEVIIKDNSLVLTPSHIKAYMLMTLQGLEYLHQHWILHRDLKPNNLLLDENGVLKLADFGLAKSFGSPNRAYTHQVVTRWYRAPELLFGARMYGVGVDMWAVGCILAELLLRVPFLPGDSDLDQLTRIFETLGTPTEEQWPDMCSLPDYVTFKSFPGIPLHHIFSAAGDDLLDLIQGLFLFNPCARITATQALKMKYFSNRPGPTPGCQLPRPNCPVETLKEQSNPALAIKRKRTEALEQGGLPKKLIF
T3 sequence (P51946 whole entry partner): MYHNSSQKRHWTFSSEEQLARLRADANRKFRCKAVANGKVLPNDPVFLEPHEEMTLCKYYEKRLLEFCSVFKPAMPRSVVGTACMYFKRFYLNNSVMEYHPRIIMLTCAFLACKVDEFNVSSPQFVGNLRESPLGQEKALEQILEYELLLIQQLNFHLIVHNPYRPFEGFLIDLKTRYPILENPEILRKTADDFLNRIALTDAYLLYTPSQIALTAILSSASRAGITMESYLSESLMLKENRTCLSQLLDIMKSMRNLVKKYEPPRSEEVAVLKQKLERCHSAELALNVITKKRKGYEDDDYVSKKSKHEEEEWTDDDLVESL
T3 sequence (P51948 whole entry partner): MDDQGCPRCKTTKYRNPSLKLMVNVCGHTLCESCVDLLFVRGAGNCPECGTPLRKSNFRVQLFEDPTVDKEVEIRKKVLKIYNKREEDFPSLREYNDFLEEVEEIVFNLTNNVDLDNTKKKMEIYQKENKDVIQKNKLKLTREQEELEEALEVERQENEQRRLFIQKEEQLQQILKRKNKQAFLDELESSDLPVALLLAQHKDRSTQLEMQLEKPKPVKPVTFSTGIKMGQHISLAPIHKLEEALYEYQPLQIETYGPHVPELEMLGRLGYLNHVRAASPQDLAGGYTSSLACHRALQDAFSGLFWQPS
Description: as §1, §2

[4] = target: T3, CDK7/CyclinH/MAT1; assay: Lance Ultra KinaSelect Assay, CDK7; format: biochemical; conditions: ULight MBP substrate, ATP 25 μM; read-out: CDK7 LANCE assay (activity range), IC50
Description: as §3, §4

[5] = target: T4, CDK9/Cyclin K (Homo sapiens, UniProt P50750); assay: LanthaScreen Eu Kinase Binding Assay, CDK9/Cyclin K; conditions: tracer 236, read-out: CDK9/Cyclin K (activity range), Kd
T4 construct: purchased Invitrogen
T4 sequence (P50750 whole entry): as the sequence (P50750 whole entry) above
T4 sequence (O75909 1-357 isoform O75909-1 partner): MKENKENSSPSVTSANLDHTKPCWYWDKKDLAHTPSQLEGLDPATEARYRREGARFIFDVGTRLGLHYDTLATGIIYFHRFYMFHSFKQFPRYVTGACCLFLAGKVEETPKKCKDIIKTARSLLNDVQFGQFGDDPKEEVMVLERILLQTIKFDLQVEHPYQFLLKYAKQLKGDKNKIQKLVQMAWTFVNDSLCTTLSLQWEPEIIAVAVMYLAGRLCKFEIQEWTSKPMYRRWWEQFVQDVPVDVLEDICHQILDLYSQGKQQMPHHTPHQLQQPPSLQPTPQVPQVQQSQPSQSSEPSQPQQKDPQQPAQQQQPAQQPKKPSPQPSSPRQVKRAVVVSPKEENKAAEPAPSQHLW
Description: as §1, §2

T1 sequence (P50750 whole entry): as the sequence (P50750 whole entry) above
T1 sequence (O60563 whole entry partner): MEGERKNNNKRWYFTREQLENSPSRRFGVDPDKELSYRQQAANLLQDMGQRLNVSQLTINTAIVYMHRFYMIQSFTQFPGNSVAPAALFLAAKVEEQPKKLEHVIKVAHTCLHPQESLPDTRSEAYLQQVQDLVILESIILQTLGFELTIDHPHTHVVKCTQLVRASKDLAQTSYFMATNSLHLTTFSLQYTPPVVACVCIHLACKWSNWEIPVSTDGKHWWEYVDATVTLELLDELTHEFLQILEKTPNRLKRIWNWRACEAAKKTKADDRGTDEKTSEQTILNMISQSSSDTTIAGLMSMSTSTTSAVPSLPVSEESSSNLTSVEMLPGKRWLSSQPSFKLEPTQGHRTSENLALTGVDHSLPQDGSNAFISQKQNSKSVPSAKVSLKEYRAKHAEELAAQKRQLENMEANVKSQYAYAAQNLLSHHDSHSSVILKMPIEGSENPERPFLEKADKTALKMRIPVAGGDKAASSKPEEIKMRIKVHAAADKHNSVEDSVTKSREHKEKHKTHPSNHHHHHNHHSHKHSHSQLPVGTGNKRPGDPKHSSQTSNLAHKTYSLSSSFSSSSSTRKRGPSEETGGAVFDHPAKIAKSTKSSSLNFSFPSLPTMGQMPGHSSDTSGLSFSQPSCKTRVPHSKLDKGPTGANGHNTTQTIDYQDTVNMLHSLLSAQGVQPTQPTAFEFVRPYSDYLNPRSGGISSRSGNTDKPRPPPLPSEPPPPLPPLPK

Row | SMILES | Kd [1] | IC50 [2] | Kd [3] | IC50 [4] | Kd [5]
1 | COc1ccccc1-c1ccnc(Nc2cccc(S(N)(=O)=O)c2)c1 [Compound D1, 3-[(4-(2-Methoxyphenyl)pyridin-2-yl)amino]benzenesulfonamide] | < 100 nM | < 100 nM | > 10000 nM | > 10000 nM | < 100 nM
2 | COc1ccccc1-c1ccnc(Nc2ccc(S(N)(=O)=O)cc2)c1 [Compound E1, 4-[(4-(2-Methoxyphenyl)pyridin-2-yl)amino]benzenesulfonamide] | 100 to 1000 nM | 100 to 1000 nM | > 10000 nM | > 10000 nM | < 100 nM
3 | COc1ccccc1-c1ccnc(Nc2cccc(S(C)(=O)=O)c2)c1 [Compound F1, 4-(2-Methoxyphenyl)-N-(3-(methylsulfonyl)phenyl)pyridin-2-amine] | < 100 nM | < 100 nM | – | – | < 100 nM
4 | COc1cc(F)ccc1-c1ccnc(Nc2cccc(CS(N)(=O)=O)c2)c1 [Compound G1, [3-((4-(4-Fluoro-2-methoxyphenyl)pyridin-2-yl)amino)phenyl]-methanesulfonamide] | < 100 nM | < 100 nM | > 10000 nM | > 10000 nM | < 100 nM
5 | COc1ccccc1-c1ccnc(Nc2cccc([N+](=O)[O-])c2)c1 [Compound C1, 4-(2-Methoxyphenyl)-N-(3-nitrophenyl)pyridin-2-amine] | 100 to 1000 nM | 1000 to 10000 nM | – | – | 100 to 1000 nM
6 | COc1ccccc1-c1ccnc(Nc2ccccc2)c1 [Compound B1, 4-(2-Methoxyphenyl)-N-phenylpyridin-2-amine] | 1000 to 10000 nM | 1000 to 10000 nM | – | – | –

Second part, the compound after the results:

Row | Kd [1] | IC50 [2] | Kd [3] | IC50 [4] | Kd [5] | SMILES
7 | < 100 nM | < 100 nM | > 10000 nM | > 10000 nM | – | COc1cc(F)ccc1-c1ccnc(Nc2cccc(CS(=O)(=O)N(C)C)c2)c1 [Compound G3, 1-[3-((4-(4-Fluoro-2-methoxyphenyl)pyridin-2-yl)amino)phenyl]-N,N-dimethylmethanesulfonamide]
8 | < 100 nM | < 100 nM | 1000 to 10000 nM | > 10000 nM | – | COc1cc(F)ccc1-c1ccnc(Nc2cccc(NS(C)(=O)=O)c2)c1 [Compound J1, N-[3-((4-(4-Fluoro-2-methoxyphenyl)pyridin-2-yl)amino)phenyl]-methanesulfonamide]
9 | < 100 nM | < 100 nM | > 10000 nM | > 10000 nM | – | COc1cc(F)ccc1-c1ccnc(Nc2cccc(NC(C)=O)c2)c1 [Compound J2, N-[3-((4-(4-Fluoro-2-methoxyphenyl)pyridin-2-yl)amino)phenyl]-acetamide]
10 | < 100 nM | 100 to 1000 nM | > 10000 nM | > 10000 nM | – | CCCNS(=O)(=O)Cc1cccc(Nc2cc(-c3ccc(F)cc3OC)ccn2)c1 [Compound K1, 1-[3-((4-(4-Fluoro-2-methoxyphenyl)pyridin-2-yl)amino)phenyl]-N-propylmethanesulfonamide]
